Test results from PMC8877962, “New Preservative-Free Formulation for the Enhanced Ocular Bioavailability of Prostaglandin Analogues in Glaucoma” (Pharmaceutics, 2022).
Read-outs that look alike come from different tables or passages of the source. One block for each compound: values may come before it.

Experiments:
[1] = Differential scanning calorimetry of travoprost:excipient blends; assay type: physicochemical
Description: The differential scanning calorimetry (DSC) studies were performed using a DSC 3 thermal analysis device (Mettler-Toledo GmbH, Greinfensee, Switzerland) calibrated upstream with high-purity zinc (99.99%, Tfus = 419.6 ± 0.7 °C, ΔfusH = 107.5 ± 3.2 J.g^−1), high-purity indium (99.99%, Tfus = 156.6 ± 0.3 °C, ΔfusH = 28.45 ± 0.60 J.g^−1) and controlled with both, and Milli-Q water (Merck Millipore, Burlington, MA, USA). Each sample was introduced in a 100 µL aluminum pan which was hermetically sealed afterwards. The conditions of the sample preparation, as well as the applied temperature program, were strictly identical to avoid any thermal history dependence of the samples. The cycle, performed twice on each sample, was freezing from ambient temperature to −80 °C at a rate of 5 °C/min, then holding for 3 min at −80 °C, then heating to 25 °C, at a rate of 5 °C/min under a 60 mL/min dry air flow. Travoprost, NaHA and PS80 were analyzed either alone or as binary drug:excipient blends at different weight ratios (1:3, 1:1 and 3:1, respectively). Measurements were performed on 3 independent samples (n = 3). Thermogram evaluation was performed using STARe version 16.30 (Mettler-Toledo GmbH, Greinfensee, Switzerland).

[2] = set-up: method as in doi:10.1002/etc.5620171002; settings: cited from earlier work
[3] = set-up: method as in doi:10.1007/s11743-000-0113-4; settings: surface tension measurement; cited from earlier work
[4] = Pyrene fluorescence spectroscopy (micelle formation, CMC determination); assay type: physicochemical; settings: pyrene 7.5 µM
Description: Pyrene is a lipophilic fluorescent probe often used to determine the critical micellar concentration (CMC) of surfactants. Indeed, it has the interesting feature of being sensitive to the polarity of its environment and partitioning into micelles leading to an hyperchromicity. First, 40 mg of pyrene were dissolved into 10 mL of ethanol, this solution was diluted in water to achieve a stock solution with a concentration of 7.5 µM. This stock solution was used as solvent to prepare PS80 and NaHA solutions of different concentrations in triplicate. Fluorescence measurements were performed using a Varian Cary Eclipse fluorescence spectrophotometer and processed with the Cary Eclipse software version 1.1.132 (Agilent Technologies, Santa Clara, CA, USA). The data were acquired using an excitation wavelength of 230 nm with a 20 nm slit and by recording an emission scan from 350 to 450 nm with a 2.5 nm slit. Peaks 1 and 3, used to determine the fluorescence ratio I1/I3, were at approximately 372 and 383 nm, respectively. PS80 CMC was determined using a sigmoidal non-linear variable slope regression performed using GraphPad Prism version 8.0.2 for windows (GraphPad Software, San Diego, CA, USA). CMC was considered as the abscissa of the point at which the top of the sigmoid and the tangent to the inflection point crossed.

[5] = set-up: method as in earlier work; settings: fluorescence-based method using pyrene-3-carboxaldehyde; cited from earlier work
[6] = Travoprost:Excipient mass ratio 1:0 (travoprost alone), n = 3
[7] = Travoprost:Polysorbate 80 mass ratio 1:1
[8] = Travoprost:Polysorbate 80 mass ratio 1:3
[9] = Travoprost:Polysorbate 80 mass ratio 3:1
[10] = Travoprost:Sodium Hyaluronate mass ratio 1:1
[11] = Travoprost:Sodium Hyaluronate mass ratio 1:3
[12] = Travoprost:Sodium Hyaluronate mass ratio 3:1

Tg [1, 6]: −21.9 ± 0.6 °C
ΔCp normalized to travoprost content [1, 6]: −0.57 ± 0.05 J/g/K
Tg ([1]; Travoprost:Excipient mass ratio 1:0 (travoprost alone), n = 3, listed as travoprost): around −22 °C
Tg [1, 7]: −54.4 ± 0.6 °C
ΔCp normalized to travoprost content [1, 7]: −2.04 ± 0.06 J/g/K
Tg [1, 8]: −58.8 ± 0.7 °C
ΔCp normalized to travoprost content [1, 8]: −2.96 ± 0.07 J/g/K
Tg [1, 9]: −44.2 ± 0.7 °C
ΔCp normalized to travoprost content [1, 9]: −1.32 ± 0.06 J/g/K
Tg [1, 10]: −21.4 ± 0.6 °C
ΔCp normalized to travoprost content [1, 10]: −0.60 ± 0.05 J/g/K
Tg [1, 11]: −22.3 ± 0.7 °C
ΔCp normalized to travoprost content [1, 11]: −0.55 ± 0.05 J/g/K
Tg [1, 12]: −20.3 ± 0.6 °C
ΔCp normalized to travoprost content [1, 12]: −0.58 ± 0.06 J/g/K
shift in the Tg ([1]; in presence of PS80, when increasing the excipient content): −22 to −58 °C
Compound: CC(C)OC(=O)CCC/C=C\C[C@@H]1[C@@H](/C=C/[C@@H](O)COc2cccc(C(F)(F)F)c2)[C@H](O)C[C@@H]1O [Travoprost]

Compound: c1cc2ccc3cccc4ccc(c1)c2c34 [pyrene, Pyrene]
LogP [2]: 6.0

I1/I3 fluorescence ratio of pyrene with increasing excipient concentration [4]: decrease
Compound: Polysorbate 80 [PS80]
CMC [3]: 0.018 mM
CMC [5]: 0.015 mM
